biological target: T1, RIP1 (Homo sapiens, UniProt Q13546); experiment: Cellular RIP1 inhibitory activity: HT-29 necroptosis (TNFα/SMAC mimetic/zVAD-FMK) CellTiter-Glo viability assay; assay type: cell-based; conditions: HT-29 cells, TNF-α 10 ng/ml + SMAC mimetic 6 μM + zVAD-FMK 10 μM, 20 hours, geometric mean, read-out: EC50 Values of in vitro Cellular RIP1 Inhibitory Activity
T1 sequence (Q13546 1-671): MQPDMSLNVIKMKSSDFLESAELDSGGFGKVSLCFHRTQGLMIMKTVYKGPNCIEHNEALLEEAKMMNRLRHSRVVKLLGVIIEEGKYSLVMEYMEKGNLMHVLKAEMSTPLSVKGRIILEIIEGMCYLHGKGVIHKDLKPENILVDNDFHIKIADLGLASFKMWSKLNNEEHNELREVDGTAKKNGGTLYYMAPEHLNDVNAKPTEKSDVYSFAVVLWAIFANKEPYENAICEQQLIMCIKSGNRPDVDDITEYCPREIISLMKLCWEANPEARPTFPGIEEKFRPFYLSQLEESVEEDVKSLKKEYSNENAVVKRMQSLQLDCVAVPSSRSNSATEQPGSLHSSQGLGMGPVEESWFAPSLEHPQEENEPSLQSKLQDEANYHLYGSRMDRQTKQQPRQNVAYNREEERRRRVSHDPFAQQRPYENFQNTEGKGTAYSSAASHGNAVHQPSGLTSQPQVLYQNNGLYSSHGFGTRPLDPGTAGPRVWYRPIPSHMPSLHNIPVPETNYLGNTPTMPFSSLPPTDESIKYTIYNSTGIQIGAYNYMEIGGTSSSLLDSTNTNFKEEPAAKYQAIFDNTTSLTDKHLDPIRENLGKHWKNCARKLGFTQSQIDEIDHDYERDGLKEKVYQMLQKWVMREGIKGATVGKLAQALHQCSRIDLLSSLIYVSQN
Experimental: Compounds 1-99 (denoted as Cmpd Nos. 1 through 99 in Table 2 below) of the disclosure were tested for binding and cellular RIP1 inhibitory activity following the experimental procedures described below. Cell Seeding • 1. HT-29 cells were checked every day to make sure that they were healthy and growing as expected. They were subjected to sub-culturing when they were approximately 80% confluent. • 2. The culture medium, McCOY's 5 A medium (Gibco, Cat No. 16600-082) with 10% fetal bovine serum or FBS (Gibco, Cat No. 10099-141C), was pre-warmed in a 37° C. water bath for at least 30 min. • 3. When the cells had reached a desired level of confluency of 80% in a T75 flask, the medium was aspirated, and the cells were washed with warm phosphate buffered saline or PBS two times. • 4. 2-3 ml fresh warm trypsin (Gibco, Cat No. 25200-056) solution was added to the washed cells. The flask with the cells was transferred to a 37° C. incubator. • 5. After 5 minutes, the side of the flask was tapped, and the flask was examined under a microscope for detachment of the cells to the flask. If necessary, the cells were kept in the incubator for an additional 5-10 minutes, with occasional tapping, until lifting was complete. • 6. The trypsin reaction was neutralized by transferring 6-9 ml cell culture medium to sterile 15 ml conical tubes, and by centrifuging the cell culture at 300×g for 7 minutes to pellet the cells (supernatant decanted). • 7. The cells were resuspended in fresh cell culture medium and the cell counting was performed using a hemocytometer. • 8. 100 μl of the resuspended cell culture medium containing ˜5,000 cells were transferred into each well of the sterile 96-well cell culture plate (Corning 3903) and cultured overnight at 37° C. with 5% CO2. Compound Titration and Treatment • 1. All test compounds were dissolved in DMSO (Dimethyl sulfoxide) to create a 20 mM stock. • 2. 3 μl of each compound 20 mM stock was mixed with 27 μl DMSO, and the compound solution was further diluted at a titration ratio of 1:3 (20 μl compound solution+40 μl DMSO) till the 10 points end. • 3. All culture medium was removed from assay plates filled with HT-29 cell cultures. […] 0.5 μL of the diluted compound solution was added to the corresponding 96-well assay plates. • 5. The assay plates were incubated for 20 hours at 37° C. with 5% CO2. Cell Viability Detection • 1. The CellTiter-Glo® Luminescent Cell Viability Assay was employed to detect the ATP levels of viable HT-29 cells. • 2. The CellTiter-Glo® buffer and the lyophilized substrate were equilibriated to room temperature prior to use. • 3. The CellTiter-Glo® substrate was resuspended with CellTiter-Glo® buffer, then mixed by gently vortexing to obtain a homogeneous solution. • 4. 20 μl the enzyme/substrate mixture was transferred by multi-channel pipetting into 96-well assay plates. • 5. The assay plates were placed on an orbital shaker and the contents were shaken for 3 minutes to induce cell lysis. • 6. The assay plates were incubated at room temperature for 10 minutes to stabilize the luminescent signal. • 7. The luminescence signals were read and recorded with EnVision. • 8. The geometric mean EC50 values were calculated from 10 points response dose with duplicates. In Table 2, activity is provided as follows: +++=0.1 nM≤EC50<100 nM; ++=100 nM≤EC50<1000 nM; +=1000 nM≤EC50<10000 nM.

Structure (SMILES)	EC50
Cc1nnc(CNC(=O)C2CCN(c3ncc(F)c(-c4c(C)cnn4C)n3)CC2)s1 [Compound 46, 1-(4-(1,4-dimethyl-1H-pyrazol-5-yl)-5-fluoropyrimidin-2-yl)-N-((5-methyl-1,3,4-thiadiazol-2-yl)methyl)piperidine-4-carboxamide]	1000 to 10000 nM
Cc1csc(CNC(=O)C2CCN(c3ncc(F)c(-c4c(C)cnn4C)n3)CC2)n1 [Compound 47, 1-(4-(1,4-dimethyl-1H-pyrazol-5-yl)-5-fluoropyrimidin-2-yl)-N-((4-methylthiazol-2-yl)methyl)piperidine-4-carboxamide]	100 to 1000 nM
Cc1cnn(C)c1-c1nc(N2CCC(C(=O)N(O)CC3=CCCCC3)CC2)ncc1F [Compound 48, N-(cyclohex-1-en-1-ylmethyl)-1-(4-(1,4-dimethyl-1H-pyrazol-5-yl)-5-fluoropyrimidin-2-yl)-N-hydroxypiperidine-4-carboxamide]	0.1 to 100 nM
Cc1cnn(C)c1-c1nc(N2CCC(C(=O)NCc3nc(C)c(C)s3)CC2)ncc1F [Compound 49, 1-(4-(1,4-dimethyl-1H-pyrazol-5-yl)-5-fluoropyrimidin-2-yl)-N-((4,5-dimethylthiazol-2-yl)methyl)piperidine-4-carboxamide]	100 to 1000 nM
Cc1ncc(CNC(=O)C2CCN(c3ncc(F)c(-c4c(C)cnn4C)n3)CC2)s1 [Compound 50, 1-(4-(1,4-dimethyl-1H-pyrazol-5-yl)-5-fluoropyrimidin-2-yl)-N-((2-methylthiazol-5-yl)methyl)piperidine-4-carboxamide]	100 to 1000 nM
Cc1cnn(C)c1-c1nc(N2CCC(C(=O)N(O)Cc3cnsc3)CC2)ncc1F [Compound 51]	0.1 to 100 nM
Cc1cnn(C)c1-c1nc(N2CCC(C(=O)N(O)Cc3cncc(C#N)c3)CC2)ncc1F [Compound 52, N-((5-cyanopyridin-3-yl)methyl)-1-(4-(1,4-dimethyl-1H-pyrazol-5-yl)-5-fluoropyrimidin-2-yl)-N-hydroxypiperidine-4-carboxamide]	0.1 to 100 nM
Cc1cnn(C)c1-c1cc(OC2CC(C(=O)N(O)Cc3cc(F)cc(F)c3)C2)c(F)cn1 (stereo not drawn) [Compound 53]	0.1 to 100 nM
Cc1cnn(C)c1-c1ccc(OC2CC(C(=O)N(O)Cc3cc(F)cc(F)c3)C2)c(F)n1 (stereo not drawn) [Compound 54, N-(3,5-difluorobenzyl)-3-((6-(1,4-dimethyl-1H-pyrazol-5-yl)-2-fluoropyridin-3-yl)oxy)-N-hydroxycyclobutane-1-carboxamide]	100 to 1000 nM
Cc1cnn(C)c1-c1ncc(F)c(N2CCC(C(=O)N(O)Cc3cc(F)cc(F)c3)CC2)n1 [Compound 55, N-(3,5-difluorobenzyl)-1-(2-(1,4-dimethyl-1H-pyrazol-5-yl)-5-fluoropyrimidin-4-yl)-N-hydroxypiperidine-4-carboxamide]	0.1 to 100 nM
Cc1nc(CNC(=O)C2CCN(c3ncc(F)c(-c4c(C)cnn4C)n3)CC2)c(C)s1 [Compound 56, 1-(4-(1,4-dimethyl-1H-pyrazol-5-yl)-5-fluoropyrimidin-2-yl)-N-((2,5-dimethylthiazol-4-yl)methyl)piperidine-4-carboxamide]	0.1 to 100 nM
Cc1cnn(C)c1-c1nc(N2CCC(C(=O)NCc3cscn3)CC2)ncc1F [Compound 57, 1-(4-(1,4-dimethyl-1H-pyrazol-5-yl)-5-fluoropyrimidin-2-yl)-N-(thiazol-4-ylmethyl) piperidine-4-carboxamide]	100 to 1000 nM
Cc1cnn(C)c1-c1nc(N2CCC(C(=O)NCc3cncs3)CC2)ncc1F [Compound 58]	100 to 1000 nM
Cc1cnn(C)c1-c1nc(N2CCC(C(=O)NCc3nccs3)CC2)ncc1F [Compound 59, 1-(4-(1,4-dimethyl-1H-pyrazol-5-yl)-5-fluoropyrimidin-2-yl)-N-(thiazol-2-ylmethyl)piperidine-4-carboxamide]	100 to 1000 nM
[2H]C([2H])(NC(=O)C1CCN(c2ncc(F)c(-c3c(C)cnn3C)n2)CC1)c1cc(F)cc(F)c1F [Compound 60, 1-(4-(1,4-dimethyl-1H-pyrazol-5-yl)-5-fluoropyrimidin-2-yl)-N-((2,3,5-trifluorophenyl)methyl-d2)piperidine-4-carboxamide]	0.1 to 100 nM
[2H]C([2H])(NC(=O)C1CCN(c2ncc(F)c(-c3nnc(C)s3)n2)CC1)c1cc(F)cc(F)c1F [Compound 61, 1-(5-fluoro-4-(5-methyl-1,3,4-thiadiazol-2-yl)pyrimidin-2-yl)-N-((2,3,5-trifluorophenyl)methyl-d2)piperidine-4-carboxamide]	0.1 to 100 nM
Cc1cnn(C)c1-c1nc(N2CCC(C(=O)NCc3cc(F)cc(F)c3)CC2)ncc1F [Compound 62, N-(3,5-difluorobenzyl)-1-(4-(1,4-dimethyl-1H-pyrazol-5-yl)-5-fluoropyrimidin-2-yl)piperidine-4-carboxamide]	0.1 to 100 nM
Cc1cnn(C)c1-c1cc(N2CCC(C(=O)NCc3nccs3)CC2)c(F)cn1 [Compound 63, 1-(2-(1,4-dimethyl-1H-pyrazol-5-yl)-5-fluoropyridin-4-yl)-N-(thiazol-2-ylmethyl)piperidine-4-carboxamide]	100 to 1000 nM
Cc1nc(C)n(-c2nc(N3CCC(C(=O)N(C)Cc4cc(F)cc(F)c4)CC3)ncc2F)n1 [Compound 64, N-(3,5-difluorobenzyl)-1-(4-(3,5-dimethyl-1H-1,2,4-triazol-1-yl)-5-fluoropyrimidin-2-yl)-N-methylpiperidine-4-carboxamide]	0.1 to 100 nM
Cc1nc(C)n(-c2nc(N3CCC(C(=O)N(C)Cc4cc(F)cc(F)c4F)CC3)ncc2F)n1 [Compound 65, 1-(4-(3,5-dimethyl-1H-1,2,4-triazol-1-yl)-5-fluoropyrimidin-2-yl)-N-methyl-N-(2,3,5-trifluorobenzyl)piperidine-4-carboxamide]	0.1 to 100 nM
Cc1cnn(C)c1-c1nc(N2CCC(C(=O)N(C)Cc3cc(F)cc(F)c3F)CC2)ncc1F [Compound 66, 1-(4-(1,4-dimethyl-1H-pyrazol-5-yl)-5-fluoropyrimidin-2-yl)-N-methyl-N-(2,3,5-trifluorobenzyl)piperidine-4-carboxamide]	0.1 to 100 nM
CCN(Cc1cc(F)cc(F)c1F)C(=O)C1CCN(c2ncc(F)c(-c3c(C)cnn3C)n2)CC1 [Compound 67, 1-(4-(1,4-dimethyl-1H-pyrazol-5-yl)-5-fluoropyrimidin-2-yl)-N-ethyl-N-(2,3,5-trifluorobenzyl)piperidine-4-carboxamide]	0.1 to 100 nM
CN(Cc1cc(F)cc(F)c1F)C(=O)C1CCN(c2ncc(F)c(-c3ncnn3C)n2)CC1 [Compound 68, 1-(5-fluoro-4-(1-methyl-1H-1,2,4-triazol-5-yl)pyrimidin-2-yl)-N-methyl-N-(2,3,5-trifluorobenzyl)piperidine-4-carboxamide]	0.1 to 100 nM
Cc1nc(C)c(CN(C)C(=O)C2CCN(c3ncc(F)c(-c4c(C)cnn4C)n3)CC2)s1 [Compound 69, 1-(4-(1,4-dimethyl-1H-pyrazol-5-yl)-5-fluoropyrimidin-2-yl)-N-((2,4-dimethylthiazol-5-yl)methyl)-N-methylpiperidine-4-carboxamide]	100 to 1000 nM
